Results from patent US11806377B2, “Oral use of coriander seed oil for a soothing effect on reactive skin” (Societe d'Exploitation de Produits Pour les Industries …, priority 2018, dated 2023).
Marks after values point to notes of the source that are not given here.

Molecular target: T1, TRPA1 (Homo sapiens, UniProt O75762)
T1 construct: Human sensory neurons were obtained from pluripotent stem cells and cultured in culture plates; endogenous in cells; host or cells: human pluripotent-stem-cell-derived sensory neurons co-cultured with human keratinocytes
T1 sequence (O75762 whole entry): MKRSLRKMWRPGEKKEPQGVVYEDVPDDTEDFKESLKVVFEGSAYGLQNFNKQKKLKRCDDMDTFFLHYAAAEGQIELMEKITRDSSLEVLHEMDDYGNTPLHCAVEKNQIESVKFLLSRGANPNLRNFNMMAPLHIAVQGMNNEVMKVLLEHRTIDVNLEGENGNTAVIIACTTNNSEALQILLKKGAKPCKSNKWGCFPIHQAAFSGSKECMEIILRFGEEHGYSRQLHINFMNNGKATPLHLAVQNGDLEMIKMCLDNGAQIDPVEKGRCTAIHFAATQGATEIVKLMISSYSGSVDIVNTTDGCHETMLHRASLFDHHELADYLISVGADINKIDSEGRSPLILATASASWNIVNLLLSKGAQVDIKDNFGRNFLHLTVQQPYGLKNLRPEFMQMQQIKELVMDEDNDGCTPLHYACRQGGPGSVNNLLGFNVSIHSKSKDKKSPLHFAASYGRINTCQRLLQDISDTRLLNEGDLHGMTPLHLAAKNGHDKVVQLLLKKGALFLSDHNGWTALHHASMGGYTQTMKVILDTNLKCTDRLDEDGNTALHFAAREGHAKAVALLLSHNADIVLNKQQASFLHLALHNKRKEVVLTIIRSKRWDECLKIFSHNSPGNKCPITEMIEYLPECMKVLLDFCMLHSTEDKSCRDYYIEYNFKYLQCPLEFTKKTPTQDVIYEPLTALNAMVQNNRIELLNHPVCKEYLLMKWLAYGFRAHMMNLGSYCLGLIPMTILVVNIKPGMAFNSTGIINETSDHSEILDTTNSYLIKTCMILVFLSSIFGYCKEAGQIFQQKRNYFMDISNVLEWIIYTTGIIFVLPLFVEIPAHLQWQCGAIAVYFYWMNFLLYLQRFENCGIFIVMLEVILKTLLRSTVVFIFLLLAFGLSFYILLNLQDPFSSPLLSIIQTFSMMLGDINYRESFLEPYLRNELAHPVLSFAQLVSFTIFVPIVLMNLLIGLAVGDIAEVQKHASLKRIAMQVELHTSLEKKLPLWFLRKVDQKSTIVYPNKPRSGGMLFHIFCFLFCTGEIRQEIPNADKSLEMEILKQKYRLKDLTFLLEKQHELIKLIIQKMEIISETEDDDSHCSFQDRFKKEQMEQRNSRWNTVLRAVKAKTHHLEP
Assay: Protection against activation of TRPA1 following AITC stimulation, Fluo-4 AM calcium fluorescence in keratinocyte-sensory neuron co-culture
Format: cell-based
Conditions: for Activation of TRPA1 following stimulation with AITC, fluorescence, Mean +/- sem: human keratinocyte-neuron co-culture, 1 mM AITC, 6 replicates, 3 minutes
Procedure: The in vitro example described here relates to the reduction in the activation of the receptor TRPA1, involved in the induction of sensations of itching/irritation/scratching/pain of the skin following certain stimulations.
Protection Against Activation of TRPA1 (Neuron Experts Service)
Human sensory neurons were obtained from pluripotent stem cells and cultured in culture plates. Human keratinocytes were grown and then seeded above the neurons.
After 19 days of co-culture at 37° C. in a humid atmosphere under 5% CO2, the test products or the positive reference, HC030031 (C18H21N5O3), at 10 μM, and also the fluorescent probe Fluo-4 AM, were added to the co-culture. The Fluo-4 AM probe makes it possible to follow the rapid kinetics of the variation of the intracellular calcium concentration by measuring in real time its fluorescence intensity, and the calcium flux is associated with activation of TRPA1.
After 30 minutes of incubation, the culture medium was removed and the cultures were washed and then reincubated with the test products. Immediately afterwards, they were placed under an inverted microscope and observed in epifluorescence. […] Five seconds after starting the recording, the neurons were stimulated with 10^-3 M AITC (allyl isothiocyanate).
The experiments were carried out in 6 replicates. The fluorescence was analyzed for 3 minutes.
The fluorescence values were expressed as means+/−sem [standard error of the mean=standard deviation/root (number of values)].
For each condition, the percentages of stimulation and of protection were calculated as follows: % stimulation=100×[mean(condition)]/[mean(cells stimulated with AITC)] % protection=100×[mean(condition)−mean(cells stimulated with AITC)]/[mean(unstressed cells)−mean(cells stimulated with AITC)].
Statistical analysis was performed by a one-way ANOVA test with a significance threshold set at 5%, by comparing the conditions in pairs. A difference between the efficacy of two products was considered: • significant if p<0.05; • “at the limit of significance” if 0.05≤p<0.1; • and not significant if p>0.1.

[1] = HC030031 10 μM, coriander seed oil 0.001%

Compound | Activation of TRPA1 following stimulation with AITC, fluorescence, Mean +/- sem [1] | increase in the activation of TRPA1 vs non-stimulated cells (keratinocyte-neuron co-culture, AITC stimulation) [%] | reduction of the activation of TRPA1 (AITC-stimulated keratinocyte-neuron co-culture, coriander seed oil 0.001%) [%] | % protection (against 1 mM AITC stimulation, HC030031 10 μM, coriander seed oil 0.001%) [%] | % stimulation (relative to cells stimulated with 1 mM AITC, HC030031 10 μM, coriander seed oil 0.001%) [%]
C=CCN=C=S [AITC, allyl isothiocyanate] | 34035 +/− 1910*** AU | 585 | – | – | –
CC(C)c1ccc(NC(=O)Cn2cnc3c2c(=O)n(C)c(=O)n3C)cc1 [HC030031] | 8537 +/− 553*** AU | – | 88 | 88 | 25
